How the values were obtained:
[1] = system: patients with mild to moderate Alzheimer's disease; experiment: MRI whole brain volume (WBV) change over 65 weeks by plasma exposure; type: in vivo, human; settings: for WBV Difference ± SEM: split by 8 mg/day Cmax,ss median
Source text: (§1) Pharmacokinetic analyses were undertaken using plasma concentration data from patients who participated in either of two completed Phase III trials which have been described previously [[35, 36]]. In brief, the first (TRx-237-015) was a 15-month study which recruited 890 patients from 115 sites across 16 countries in EU, North America, Asia, and Russia. Patients had to be <90 years of age and have a diagnosis of mild to moderate probable AD according to National Institute of Aging (NIA) and Alzheimer’s Association (AA) criteria and a Mini-Mental State Examination (MMSE) score of 14–26 inclusive and with a Clinical Dementia Rating (CDR) total score of 1 or 2. The second study (TRx-237-005) was an 18-month trial which recruited 800 patients from 108 sites in Canada, United States, Australia, and Europe. Patients had to meet the same age and diagnosis criteria, except that they were required to have a MMSE score of 20–26 inclusive and a CDR total score of 0.5 or 1.0. Concomitant use of AChEIs or memantine (or both) was permitted in both studies provided this was at a stable dose for at least 18 weeks before randomization. Concomitant use of serotonergic antidepressant, antipsychotic (except clozapine or olanzapine), and sedative medications was also permitted at stable doses where clinically feasible. Patients were randomly assigned to receive LMTM at doses of 250, 150, or 8 mg/day in Study 015 and doses of 200 or 8 mg/day in Study TRx-237-005. Randomization in both studies was stratified according to geographical region, use of AD-labelled co-medications, and severity of AD. The co-primary outcomes in both studies were the Alzheimer’s Disease Assessment Scale–cognitive subscale, 11-item version (ADAS-cog11) and the Alzheimer’s Disease Co-operative Study–Activities of Daily Living, 23-item version (ADCS-ADL23) scale measured at baseline and every 3 months. MRI scans were undertaken at screening or baseline and at 3-month intervals. MRI acquisition protocol and parameters were standardized across sites and all data were centrally collected, quality-controlled, and analyzed blind by an imaging core lab (Bioclinica). Volumetric data were used to measure changes in whole brain volume (WBV, which provides a measure of the volume of grey and white matter), lateral ventricular volume (LVV), and other regional volumes including hippocampus, although only the global measures are reported in the present study. Baseline volumes were assessed using FreeSurfer 5.3, and volume change was assessed using Boundary Shift Integral and Tensor Based Morphometry for regional structures. Full details and study protocols for these two trials are available [[35, 36]].
(§2) Having shown a concentration-dependent response for cognitive decline, a mixed-effects model for repeated measures analysis was used to characterize further the relationship between each efficacy endpoint and parent MT plasma exposure (steady state Cmax,ss) according to the following formula: pharmacological activity∼plasma-level×visit+co-medication-status×visit+co-medication-status×plasma-level+geographical-region+CDR-at-baseline+baseline-score×visit
(§3) The following terms were categorical variables in the models: plasma exposure (Cmax,ss) (7 levels), visit (5 levels), co-medication status with AD drugs (2 levels), geographical region (2 levels), and CDR at baseline (3 levels). For the longitudinal analyses, plasma level was described by two levels (above or below threshold).

[2] = system: patients with mild to moderate Alzheimer's disease; experiment: MRI lateral ventricular volume (LVV) change over 65 weeks by plasma exposure; type: in vivo, human; settings: for LVV Difference ± SEM: split by 8 mg/day Cmax,ss median
Source text: as §1, §2, §3

[3] = system: patients with mild to moderate Alzheimer's disease; experiment: ADAS-cog11 change over 65 weeks by plasma exposure; type: in vivo, human; settings: for ADAS-cog Difference ± SEM: split by 8 mg/day Cmax,ss median
Source text: as §1
The exposure-response analyses were conducted independently by ICPD and verified by TauRx. As a first step in the analysis, the concentration-response data were reviewed for ADAS-cog11 decline at week 65 in all patients receiving LMTM at a dose of 8 mg/day using a sigmoid Emax (maximum response) model not requiring assumptions regarding exposure subgroups. The model was fitted using covariates geographical region, CDR at baseline, co-medication status, and baseline ADAS-cog11. A 90% bootstrap confidence interval was also calculated.
as §2
The following terms were categorical variables in the models: plasma exposure (Cmax,ss) (7 levels), visit (5 levels), co-medication status with AD drugs (2 levels), geographical region (2 levels), and CDR at baseline (3 levels). […]

[4] = system: tau transgenic mouse model for AD; set-up: method as in PMID 32091331; settings: 5 and 15 mg/kg/day; cited from earlier work
Route of clearance = settings: in vivo
[5] = LMTM 8 mg/day as add-on therapy, Cmax,ss above vs below 0.373 ng/ml
[6] = LMTM 8 mg/day as monotherapy, Cmax,ss above vs below 0.373 ng/ml
[7] = LMTM 8 mg/day, low Cmax add-on versus high Cmax monotherapy
[8] = all patients, high vs low exposure split by Cmax,ss 0.373 ng/ml, 65 weeks
[9] = patients receiving LMTM 8 mg/day, split by Cmax,ss 0.373 ng/ml, 65 weeks

CN(C)c1ccc2c(c1)Sc1cc(N(C)C)ccc1N2 [LMTM, leuco-methylthioninium bis(hydromethanesulphonate)]
WBV Difference±SEM in change from baseline [1, 5]: 4.69±1.21 cm^3
WBV Difference ± SEM ([1]; LMTM 8 mg/day as add-on therapy): 4.02 ± 1.17 cm3
WBV Difference±SEM in change from baseline [1, 6]: 2.76±1.66 cm^3
WBV Difference ± SEM ([1]; LMTM 8 mg/day as monotherapy): 1.07 ± 1.58 cm3
WBV Difference±SEM in change from baseline [1, 7]: 11.54±1.87 cm^3
WBV Difference±SEM in change from baseline [1, 8]: 3.55±1.10 cm^3
WBV Difference ± SEM ([1]; all patients): 2.47 ± 0.92 cm3
WBV Difference±SEM in change from baseline [1, 9]: 4.39±1.18 cm^3
LVV Difference±SEM in change from baseline [2, 5]: –1.81±0.39 cm^3
LVV Difference±SEM in change from baseline [2, 6]: –1.60±0.46 cm^3
LVV Difference ± SEM ([2]; LMTM 8 mg/day as monotherapy): -0.82 ± 0.44 cm3
LVV Difference±SEM in change from baseline [2, 7]: –3.15±0.62 cm^3
LVV Difference±SEM in change from baseline [2, 8]: –1.52±0.34 cm^3
LVV Difference ± SEM ([2]; all patients): -0.80 ± 0.30 cm3
LVV Difference±SEM in change from baseline [2, 9]: –1.76±0.38 cm^3
ADAS-cog11 Difference±SEM in change from baseline [3, 5]: –3.52±0.78
ADAS-cog11 Difference±SEM in change from baseline [3, 6]: –2.60±1.16
ADAS-cog Difference ± SEM ([3]; LMTM 8 mg/day as monotherapy): -2.75 ± 1.09
ADAS-cog11 Difference±SEM in change from baseline [3, 7]: –7.53±1.22
ADAS-cog11 Difference±SEM in change from baseline [3, 8]: –2.66±0.69
ADAS-cog Difference ± SEM ([3]; all patients): -1.91 ± 0.59
ADAS-cog11 Difference±SEM in change from baseline [3, 9]: –3.41±0.76
Complex IV activity in brain mitochondria [4]: increase Complex IV activity in brain mitochondria
acetylcholine levels in hippocampus [4]: increase acetylcholine levels in hippocampus
choline acetyltransferase activity in basal forebrain [4]: restore choline acetyltransferase activity in basal forebrain
glutamate release from brain synaptosomes [4]: reverse impairment in glutamate release from brain synaptosomes
share of clearance via the kidneys (Route of clearance): 70%

— paper PMC6918900, “Concentration-Dependent Activity of Hydromethylthionine on Cognitive Decline and Brain Atrophy in Mild to Moderate Alzheimer’s Disease” (Journal of Alzheimer's Disease, 2019)
